Experimental data reported in patent US12281057B2 (VERTEX PHARMACEUTICALS INCORPORATED, priority 2017, dated 2025).

target: truncated form of human NaV 1.8 with full channel activity (Homo sapiens, UniProt Q9Y5Y9); test: E-VIPR Assay Method A for detecting and measuring Nav inhibition (HEK cells, membrane potential FRET dyes, electrical stimulation); format: cell-based; details: HEK cells expressing human NaV 1.8, HS (human serum) in compound loading buffer, 11 point dose response, top dose 3 μM, Table 20, read-out: Nav 1.8 MedChem Optical Assay EVIPR Assay Method A HS IC50
Outline: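 Read-out: FRET membrane-potential dye ratio (460/580 nm) before and during E-VIPR field stimulation at 10 Hz for 10 s, expressed as % activity between DMSO and positive controls. Cells: HEK with truncated human NaV1.8; compound preincubated 30 min at room temp, final DMSO 0.625%.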

truncated form of human NaV 1.8 with full channel activity, sequence (Q9Y5Y9 126-1722 limits assumed): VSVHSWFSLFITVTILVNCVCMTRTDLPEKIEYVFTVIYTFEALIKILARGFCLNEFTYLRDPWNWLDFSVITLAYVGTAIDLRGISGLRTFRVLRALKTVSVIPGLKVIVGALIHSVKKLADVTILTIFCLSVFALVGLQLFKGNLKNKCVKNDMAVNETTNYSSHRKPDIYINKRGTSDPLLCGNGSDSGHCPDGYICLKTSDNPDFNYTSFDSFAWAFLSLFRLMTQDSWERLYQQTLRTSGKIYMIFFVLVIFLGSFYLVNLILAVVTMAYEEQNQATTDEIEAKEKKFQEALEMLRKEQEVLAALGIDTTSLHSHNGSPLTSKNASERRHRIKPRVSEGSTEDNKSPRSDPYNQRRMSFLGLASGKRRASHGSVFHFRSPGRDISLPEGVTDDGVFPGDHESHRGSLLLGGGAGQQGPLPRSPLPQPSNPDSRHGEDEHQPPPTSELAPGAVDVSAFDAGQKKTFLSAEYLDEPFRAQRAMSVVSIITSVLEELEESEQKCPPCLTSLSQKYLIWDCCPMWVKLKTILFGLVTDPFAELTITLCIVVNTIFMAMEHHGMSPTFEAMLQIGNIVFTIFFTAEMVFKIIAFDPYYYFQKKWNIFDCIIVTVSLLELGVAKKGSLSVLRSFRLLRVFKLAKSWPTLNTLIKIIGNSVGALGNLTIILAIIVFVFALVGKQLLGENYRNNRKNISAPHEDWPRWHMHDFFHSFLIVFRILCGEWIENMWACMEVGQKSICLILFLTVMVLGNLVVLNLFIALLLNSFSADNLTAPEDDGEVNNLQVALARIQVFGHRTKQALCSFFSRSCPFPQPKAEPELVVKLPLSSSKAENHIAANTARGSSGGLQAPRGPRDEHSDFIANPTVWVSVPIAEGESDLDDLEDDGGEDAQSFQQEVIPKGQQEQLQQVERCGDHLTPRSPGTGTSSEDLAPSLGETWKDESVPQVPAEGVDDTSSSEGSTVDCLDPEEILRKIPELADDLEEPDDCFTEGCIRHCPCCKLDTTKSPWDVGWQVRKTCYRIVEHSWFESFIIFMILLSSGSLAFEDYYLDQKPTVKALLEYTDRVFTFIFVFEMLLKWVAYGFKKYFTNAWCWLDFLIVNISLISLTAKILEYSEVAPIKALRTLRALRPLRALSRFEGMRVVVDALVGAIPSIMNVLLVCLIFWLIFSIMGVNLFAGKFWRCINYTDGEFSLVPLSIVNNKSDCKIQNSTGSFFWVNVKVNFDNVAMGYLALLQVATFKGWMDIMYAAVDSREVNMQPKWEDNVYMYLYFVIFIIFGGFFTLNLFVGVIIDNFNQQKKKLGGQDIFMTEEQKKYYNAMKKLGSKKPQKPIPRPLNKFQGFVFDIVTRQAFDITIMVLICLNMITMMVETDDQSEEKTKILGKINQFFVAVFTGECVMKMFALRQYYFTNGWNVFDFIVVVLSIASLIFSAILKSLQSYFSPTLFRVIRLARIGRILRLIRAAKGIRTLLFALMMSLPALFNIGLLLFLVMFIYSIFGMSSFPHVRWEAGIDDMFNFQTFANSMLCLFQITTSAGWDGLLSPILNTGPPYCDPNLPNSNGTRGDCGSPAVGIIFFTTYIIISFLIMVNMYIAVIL

Row | IC50 | SMILES
1 | 6 nM | NC(=O)c1cc(NC(=O)c2c(Oc3ccc(OC(F)(F)F)c(Cl)c3)ccc(C(F)(F)F)c2F)ccc1F [Compound 14, N-(3-carbamoyl-4-fluoro-phenyl)-6-[3-chloro-4-(trifluoromethoxy)phenoxy]-2-fluoro-3-(trifluoromethyl)benzamide]
2 | 7 nM | COc1cc(OC(F)(F)F)ccc1Oc1ccc(C(F)(F)F)c(F)c1C(=O)Nc1ccc(C(N)=O)c(F)c1 [Compound 16, N-(4-carbamoyl-3-fluoro-phenyl)-2-fluoro-6-[2-methoxy-4-(trifluoromethoxy)phenoxy]-3-(trifluoromethyl)benzamide]
3 | 1 nM | [2H]C([2H])([2H])Oc1cc(OC(F)(F)F)ccc1Oc1ccc(OC(F)(F)F)c(F)c1C(=O)Nc1ccc(F)c(C(N)=O)c1 [Compound 3, N-(3-carbamoyl-4-fluoro-phenyl)-2-fluoro-6-[2-(trideuteriomethoxy)-4-(trifluoromethoxy)phenoxy]-3-(trifluoromethoxy)benzamide]
4 | 7 nM | NC(=O)c1cc(NC(=O)c2c(Oc3ccc(OC(F)(F)F)cc3)ccc(C(F)(F)F)c2F)ccc1F [Compound 15, N-(3-carbamoyl-4-fluoro-phenyl)-2-fluoro-6-[4-(trifluoromethoxy)phenoxy]-3-(trifluoromethyl)benzamide]

same assay, conditions: HEK cells expressing human NaV 1.8, HS (human serum) in compound loading buffer, 11 point dose response, top dose 3 μM, Table 20A, read-out: Nav 1.8 MedChem Optical Assay EVIPR Assay Method A HS IC50

Row | IC50 | SMILES
5 | 76 nM | COc1cc(F)ccc1Oc1cc(Cl)cc(Cl)c1C(=O)Nc1ccnc(C(N)=O)c1 [Compound 178, 4-[[2,4-Dichloro-6-(4-fluoro-2-methoxy-phenoxy)benzoyl]amino]pyridine-2-carboxamide]
6 | 200 nM | N#Cc1cc(F)ccc1Oc1ccc(C(F)(F)F)c(F)c1C(=O)Nc1ccc(F)c(C(N)=O)c1 [Compound 295, N-(3-carbamoyl-4-fluoro-phenyl)-6-(2-cyano-4-fluoro-phenoxy)-2-fluoro-3-(trifluoromethyl)benzamide]
7 | 14 nM | COc1cc(OC(F)(F)F)ccc1Oc1cc(Cl)cc(F)c1C(=O)Nc1ccnc(C(N)=O)c1 [Compound 170, 4-[[4-Chloro-2-fluoro-6-[2-methoxy-4-(trifluoromethoxy)phenoxy]benzoyl]amino]pyridine-2-carboxamide]
8 | 45 nM | CCOc1c(C(F)(F)F)ncc(Oc2ccc(OC(F)(F)F)cc2OC)c1C(=O)Nc1ccnc(C(N)=O)c1 [Compound 206, N-(2-Carbamoyl-4-pyridyl)-3-ethoxy-5-[2-methoxy-4-(trifluoromethoxy)phenoxy]-2-(trifluoromethyl)pyridine-4-carboxamide]
9 | 6 nM | COc1cc(OC(F)(F)F)ccc1Oc1cc(Cl)c(C)c(F)c1C(=O)Nc1cc(C(N)=O)ncc1C [Compound 211, 4-[[4-Chloro-2-fluoro-6-[2-methoxy-4-(trifluoromethoxy)phenoxy]-3-methyl-benzoyl]amino]-5-methyl-pyridine-2-carboxamide]
10 | 5 nM | [2H]C([2H])([2H])Oc1c(Oc2ccc(Cl)c(F)c2C(=O)Nc2ccnc(C(N)=O)c2)ccc(OC(F)(F)F)c1F [Compound 220, 4-[[3-Chloro-2-fluoro-6-[3-fluoro-2-(trideuteriomethoxy)-4-(trifluoromethoxy)phenoxy]benzoyl]amino]pyridine-2-carboxamide]
11 | 12 nM | [2H]C([2H])([2H])Oc1cc(OC(F)(F)F)ccc1Oc1cc(OC(F)(F)F)cc(F)c1C(=O)Nc1ccnc(C(N)=O)c1 [Compound 172, 4-[[2-Fluoro-6-[2-(trideuteriomethoxy)-4-(trifluoromethoxy)phenoxy]-4-(trifluoromethoxy)benzoyl]amino]pyridine-2-carboxamide]
12 | 27 nM | COc1cc(OC(F)(F)F)ccc1Oc1ccc(C(F)(F)F)c(F)c1C(=O)Nc1ccnc(C(N)=O)n1 [Compound 207, 4-[[2-Fluoro-6-[2-methoxy-4-(trifluoromethoxy)phenoxy]-3-(trifluoromethyl)benzoyl]amino]pyrimidine-2-carboxamide]
13 | 170 nM | COc1cc(F)ccc1-c1cc(C(C)(C)C)ncc1C(=O)Nc1ccc(F)c(C(N)=O)c1 [Compound 199, 6-tert-butyl-N-(3-carbamoyl-4-fluoro-phenyl)-4-(4-fluoro-2-methoxy-phenyl)pyridine-3-carboxamide]
14 | 18 nM | NC(=O)c1cc(NC(=O)c2c(Oc3ccc(OC(F)(F)F)cc3)cc(OCc3ccccc3)c(C(F)(F)F)c2F)ccc1F [Compound 215, 4-Benzyloxy-N-(3-carbamoyl-4-fluoro-phenyl)-2-fluoro-6-[4-(trifluoromethoxy)phenoxy]-3-(trifluoromethyl)benzamide]
15 | 400 nM | COc1cc(OC(F)(F)F)ccc1Oc1cc(C(F)(F)F)ncc1C(=O)Nc1ccc(C)c(C(N)=O)c1 [Compound 238, N-(3-carbamoyl-4-methyl-phenyl)-4-[2-methoxy-4-(trifluoromethoxy)phenoxy]-6-(trifluoromethyl)pyridine-3-carboxamide]

Further lines, the compound ahead of its results:

Row | SMILES | IC50
16 | [2H]C([2H])([2H])Oc1cc(OC(F)(F)F)ccc1Oc1ccc(C(F)(F)F)c(F)c1C(=O)Nc1cccc(C(N)=O)n1 [Compound 168, 6-[[2-Fluoro-6-[2-(trideuteriomethoxy)-4-(trifluoromethoxy)phenoxy]-3-(trifluoromethyl)benzoyl]amino]pyridine-2-carboxamide] | 140 nM
17 | COc1cc(OC(F)(F)F)ccc1Oc1ccc(C(F)(F)F)c(F)c1C(=O)Nc1cc(C(N)=O)ccn1 [Compound 87, 2-[[2-fluoro-6-[2-methoxy-4-(trifluoromethoxy)phenoxy]-3-(trifluoromethyl)benzoyl]amino]pyridine-4-carboxamide] | 150 nM
18 | NC(=O)c1cc(NC(=O)c2c(Oc3ccc(OC(F)(F)F)cc3)ccc(F)c2F)ccn1 [Compound 64, 4-[[2,3-Difluoro-6-[4-(trifluoromethoxy)phenoxy]benzoyl]amino]pyridine-2-carboxamide] | 185 nM
19 | [2H]C([2H])([2H])Oc1cc(OC(F)(F)F)ccc1Oc1cc(OC(F)(F)F)ccc1C(=O)Nc1ccnc(C(N)=O)c1 [Compound 147, 4-[[2-[2-(Trideuteriomethoxy)-4-(trifluoromethoxy)phenoxy]-4-(trifluoromethoxy)benzoyl]amino]pyridine-2-carboxamide] | 130 nM
20 | COc1cc(OC(F)(F)F)ccc1Oc1cc(C(F)(F)F)ncc1C(=O)Nc1ccc(F)c(C(N)=O)c1 [Compound 30, N-(3-Carbamoyl-4-fluoro-phenyl)-4-[2-methoxy-4-(trifluoromethoxy)phenoxy]-6-(trifluoromethyl)pyridine-3-carboxamide] | 20 nM
21 | CNC(=O)c1cccc(NC(=O)c2c(Oc3ccc(OC(F)(F)F)cc3OC)ccc(C(F)(F)F)c2F)c1 [Compound 98, 2-fluoro-6-[2-methoxy-4-(trifluoromethoxy)phenoxy]-N-[3-(methylcarbamoyl)phenyl]-3-(trifluoromethyl)benzamide] | 15 nM
22 | NC(=O)c1cc(NC(=O)c2c(Oc3ccc(OC(F)(F)F)cc3)ccc(C(F)F)c2F)ccn1 [Compound 83, 4-[[3-(Difluoromethyl)-2-fluoro-6-[4-(trifluoromethoxy)phenoxy]benzoyl]amino]pyridine-2-carboxamide] | 48 nM
23 | COc1ccc(Oc2cccc(C(F)(F)F)c2C(=O)Nc2ccc(F)c(C(N)=O)c2)c(OC)c1 [Compound 38, N-(3-Carbamoyl-4-fluoro-phenyl)-2-(2,4-dimethoxyphenoxy)-6-(trifluoromethyl)benzamide] | 700 nM
24 | NC(=O)c1cc(NC(=O)c2c(Oc3ccc(OC(F)(F)F)c(F)c3)ccc(C(F)(F)F)c2F)ccn1 [Compound 57, 4-[[2-fluoro-6-[3-fluoro-4-(trifluoromethoxy)phenoxy]-3-(trifluoromethyl)benzoyl]amino]pyridine-2-carboxamide] | 17 nM
25 | NC(=O)c1cc(NC(=O)c2c(Oc3ccc(OC(F)(F)F)c(Cl)c3)ccc(C(F)(F)F)c2F)ccn1 [Compound 53] | 17 nM
26 | COc1cc(OC(F)(F)F)ccc1Oc1cc(C(F)(F)F)cc(F)c1C(=O)Nc1ccnc(C(N)=O)c1 [Compound 163, 4-[[2-Fluoro-6-[2-methoxy-4-(trifluoromethoxy)phenoxy]-4-(trifluoromethyl)benzoyl]amino]pyridine-2-carboxamide] | 11 nM
27 | NC(=O)c1cc(NC(=O)c2c(Oc3ccc(OC(F)(F)F)cc3F)ccc(C(F)(F)F)c2F)ccn1 [Compound 90, 4-[[2-fluoro-6-[2-fluoro-4-(trifluoromethoxy)phenoxy]-3-(trifluoromethyl)benzoyl]amino]pyridine-2-carboxamide] | 38 nM
28 | COc1cc(OC(F)(F)F)ccc1Oc1ccc(Cl)cc1C(=O)Nc1cc(C(N)=O)ncc1C [Compound 150, 4-[[5-Chloro-2-[2-methoxy-4-(trifluoromethoxy)phenoxy]benzoyl]amino]-5-methyl-pyridine-2-carboxamide] | 290 nM
29 | COc1cc(F)ccc1Oc1cc(C(F)(F)F)cc(C(F)(F)F)c1C(=O)Nc1ccc(C(N)=O)nc1 [Compound 159, 5-[[2-(4-Fluoro-2-methoxy-phenoxy)-4,6-bis(trifluoromethyl)benzoyl]amino]pyridine-2-carboxamide] | 1700 nM
30 | NC(=O)c1cc(NC(=O)c2c(Oc3cccc4c3OCC4)ccc(C(F)(F)F)c2F)ccc1F [Compound 58, N-(3-Carbamoyl-4-fluoro-phenyl)-6-(2,3-dihydrobenzofuran-7-yloxy)-2-fluoro-3-(trifluoromethyl)benzamide] | 190 nM
31 | NC(=O)c1cc(NC(=O)c2c(Oc3ccc(OC(F)(F)F)cc3)ccc(C(F)(F)F)c2F)cc[n+]1[O-] [Compound 110, 4-[[2-Fluoro-6-[4-(trifluoromethoxy)phenoxy]-3-(trifluoromethyl)benzoyl]amino]-1-oxido-pyridin-1-ium-2-carboxamide] | 55 nM
